# Key:
# CK1α = target: T1, CK1α (Homo sapiens, UniProt P48729+Q96SW2); test: Western blot, degradation of substrate protein in hPBMCs; format: cell-based
# T1 construct: effects of the compounds of the present disclosure on the expression of target proteins in cells; endogenous in cells; host or cells: human PBMCs (Milecell Biotechnologies)
# IKZF1 = target: T2, IKZF1 (Homo sapiens, UniProt Q13422+Q96SW2); test: as above; format: cell-based
# T2 construct: effects of the compounds of the present disclosure on the expression of target proteins in cells; endogenous in cells; host or cells: human PBMCs (Milecell Biotechnologies)
# IKZF2 = target: T3, IKZF2 (Homo sapiens, UniProt Q96SW2+Q9UKS7); test: as above; format: cell-based
# T3 construct: effects of the compounds of the present disclosure on the expression of target proteins in cells; endogenous in cells; host or cells: human PBMCs (Milecell Biotechnologies)
# IKZF3 = target: T4, IKZF3 (Homo sapiens, UniProt Q96SW2+Q9UKT9); test: as above; format: cell-based
# T4 construct: effects of the compounds of the present disclosure on the expression of target proteins in cells; endogenous in cells; host or cells: human PBMCs (Milecell Biotechnologies)
# WEE1 = target: T5, WEE1 (Homo sapiens, UniProt P30291+Q96SW2); test: as above; format: cell-based
# T5 construct: effects of the compounds of the present disclosure on the expression of target proteins in cells; endogenous in cells; host or cells: human PBMCs (Milecell Biotechnologies)
# GSPT1 = test: as above; format: cell-based, Human
# [1] = target: T6, human Cereblon WT GST-tagged protein (Homo sapiens, UniProt Q96SW2); test: CRBN-binding affinity, HTRF (CEREBLON BINDING kit); details: for inhibition at 0.5 µM: read-out: Inhibition Rate at 0.5 µM (%); for inhibition at 2 µM: read-out: Inhibition Rate at 2 µM (%)
# T6 construct: purchased CISBIO 64BDCRBNPEH
# [2] = tested on: Human multiple myeloma cell (MM.1S); test: Tumor cell proliferation inhibition (CellTiter-Meiluncell luminescent cell viability assay); details: Homo sapiens, MM1.S, 96 h; for inhibition at 0.01 µM: read-out: Inhibition Rate at 10 nM (%); for inhibition at 0.5 µM: read-out: Inhibition Rate at 500 nM (%)
# [3] = tested on: Human acute T lymphocytic leukemia cell (Molt4); test: as above; details: MOLT-4, 96 h; for inhibition at 0.01 µM: read-out: Inhibition Rate at 10 nM (%); for inhibition at 0.5 µM: read-out: Inhibition Rate at 500 nM (%)
# [4] = tested on: Human myeloid monocytic leukemia cell (MV-4-11); test: as above; details: MV4-11, 96 h; for inhibition at 0.01 µM: read-out: Inhibition Rate at 10 nM (%); for inhibition at 0.5 µM: read-out: Inhibition Rate at 500 nM (%)
# Method: The tumor cells used herein were cultured in a cell culture medium listed in table 2 at 37°C in an incubator with 5% CO2. Prior to experimentation, all cell lines used were correctly identified by STR profiling, and tested negative for mycoplasma contamination using a mycoplasma detection kit through routine screenings.
# The IC50 values of the compounds of the present disclosure (including the compounds in Table 1 and Examples) were determined using the CellTiter-Meiluncell Luminescent Cell Viability Assay Kit from Dalian Meilun Biotech Co., Ltd. The detailed procedure is as follows: Tumor cells were seeded in 96-well cell culture plates at the densities specified in Table 3. On the following day, the test compounds of the present disclosure were subjected to serial dilution. The dilution can be performed according to one of the following two methods: • (1) The first dilution method: The test compounds of the present disclosure (including the compounds in Table 1 and Examples) were subjected to 5-fold serial dilutions starting from a highest concentration of 2000 µM, resulting in a total of 9 concentrations from high to low (2000, 400, 80, 16, 3.2, 0.64, 0.128, 0.0256, 0.00512 µM). Subsequently, 0.5 µL of the test compound dilution was transferred into the 96-well plate containing the cells, with each well containing 100 µL of cell culture medium. […] Into the 96-well plate, the diluted test compounds and corresponding detection reagents were added, resulting in final test compound concentrations of 500 nM and 10 nM, respectively. The experimental procedure is described below using the diluted 2 µM test compound as an example.
# 0.5 µL of the aforementioned diluted compound of the present disclosure (including the compounds in Table 1 and Examples) was added to the seeded cells in 100 µL of medium, yielding a final test compound concentration of 10 nM. After the cells were treated with the compounds of the present disclosure for a specified period, the cell viability assay reagent was added to the culture medium according to the kit's instructions to determine cell viability. […] All controls were treated using the same procedure as the compounds of the present disclosure. The growth inhibition curves for the compounds of the present disclosure were plotted using Prism GraphPad software, and the IC50 values were calculated therefrom.
# [5] = Western blot, 24 hours of compound treatment, compounds tested at 50 nM and 500 nM (concentration for the table not stated)
# [6] = 24 hours treatment, compounds at 50 nM and 500 nM (concentration behind the class not stated)
# T1 sequence (P48729 whole entry): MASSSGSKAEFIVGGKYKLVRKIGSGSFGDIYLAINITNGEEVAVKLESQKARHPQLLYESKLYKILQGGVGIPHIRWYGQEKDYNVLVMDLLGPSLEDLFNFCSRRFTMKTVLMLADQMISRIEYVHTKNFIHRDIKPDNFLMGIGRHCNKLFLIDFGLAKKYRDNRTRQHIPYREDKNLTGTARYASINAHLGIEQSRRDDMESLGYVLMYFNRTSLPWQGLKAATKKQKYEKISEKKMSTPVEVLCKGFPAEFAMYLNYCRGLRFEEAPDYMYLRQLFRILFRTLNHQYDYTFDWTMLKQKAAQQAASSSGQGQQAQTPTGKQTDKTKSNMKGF
# T1 sequence (Q96SW2 whole entry): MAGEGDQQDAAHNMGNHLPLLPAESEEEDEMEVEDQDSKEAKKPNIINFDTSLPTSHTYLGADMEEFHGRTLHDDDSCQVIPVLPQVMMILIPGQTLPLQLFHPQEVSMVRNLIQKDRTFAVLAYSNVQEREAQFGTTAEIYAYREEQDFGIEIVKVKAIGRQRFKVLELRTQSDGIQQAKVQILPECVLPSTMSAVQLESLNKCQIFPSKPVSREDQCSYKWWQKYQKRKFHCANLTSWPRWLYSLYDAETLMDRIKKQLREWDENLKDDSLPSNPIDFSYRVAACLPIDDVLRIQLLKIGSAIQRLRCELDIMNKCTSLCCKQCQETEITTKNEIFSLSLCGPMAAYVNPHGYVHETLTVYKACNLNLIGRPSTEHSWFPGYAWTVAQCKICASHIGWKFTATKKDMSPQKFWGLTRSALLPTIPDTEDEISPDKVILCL
# T1 sequence (Q16531 whole entry partner): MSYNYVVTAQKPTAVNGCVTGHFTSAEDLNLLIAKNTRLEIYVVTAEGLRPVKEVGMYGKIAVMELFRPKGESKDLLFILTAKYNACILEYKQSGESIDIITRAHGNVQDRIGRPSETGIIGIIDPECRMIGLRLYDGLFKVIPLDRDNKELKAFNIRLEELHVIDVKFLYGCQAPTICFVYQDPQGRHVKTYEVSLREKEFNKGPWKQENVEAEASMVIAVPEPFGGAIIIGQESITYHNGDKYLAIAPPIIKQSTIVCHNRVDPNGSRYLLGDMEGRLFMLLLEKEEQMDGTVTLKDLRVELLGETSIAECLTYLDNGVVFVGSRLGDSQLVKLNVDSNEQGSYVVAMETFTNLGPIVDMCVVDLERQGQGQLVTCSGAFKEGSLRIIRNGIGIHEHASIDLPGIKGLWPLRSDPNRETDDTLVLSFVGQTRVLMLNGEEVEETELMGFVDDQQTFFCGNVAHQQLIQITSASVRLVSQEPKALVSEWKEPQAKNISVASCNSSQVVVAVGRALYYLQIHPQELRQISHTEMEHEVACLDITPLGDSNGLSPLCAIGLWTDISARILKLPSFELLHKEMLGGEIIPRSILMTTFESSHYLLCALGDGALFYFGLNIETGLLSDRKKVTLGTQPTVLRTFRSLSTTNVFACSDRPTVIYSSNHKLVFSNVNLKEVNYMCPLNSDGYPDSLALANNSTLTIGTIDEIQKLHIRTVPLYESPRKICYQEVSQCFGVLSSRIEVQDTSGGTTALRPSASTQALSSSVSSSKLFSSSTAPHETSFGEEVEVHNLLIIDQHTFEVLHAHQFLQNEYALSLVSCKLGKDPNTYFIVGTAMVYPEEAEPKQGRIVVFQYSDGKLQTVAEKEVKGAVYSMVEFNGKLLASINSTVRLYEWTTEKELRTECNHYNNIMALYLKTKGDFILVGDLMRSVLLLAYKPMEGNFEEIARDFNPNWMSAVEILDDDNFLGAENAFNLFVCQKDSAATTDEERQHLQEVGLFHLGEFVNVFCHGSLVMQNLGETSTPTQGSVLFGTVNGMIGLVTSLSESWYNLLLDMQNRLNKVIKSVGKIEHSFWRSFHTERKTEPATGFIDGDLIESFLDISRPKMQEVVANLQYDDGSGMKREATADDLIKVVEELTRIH
# T3 sequence (Q9UKS7 whole entry): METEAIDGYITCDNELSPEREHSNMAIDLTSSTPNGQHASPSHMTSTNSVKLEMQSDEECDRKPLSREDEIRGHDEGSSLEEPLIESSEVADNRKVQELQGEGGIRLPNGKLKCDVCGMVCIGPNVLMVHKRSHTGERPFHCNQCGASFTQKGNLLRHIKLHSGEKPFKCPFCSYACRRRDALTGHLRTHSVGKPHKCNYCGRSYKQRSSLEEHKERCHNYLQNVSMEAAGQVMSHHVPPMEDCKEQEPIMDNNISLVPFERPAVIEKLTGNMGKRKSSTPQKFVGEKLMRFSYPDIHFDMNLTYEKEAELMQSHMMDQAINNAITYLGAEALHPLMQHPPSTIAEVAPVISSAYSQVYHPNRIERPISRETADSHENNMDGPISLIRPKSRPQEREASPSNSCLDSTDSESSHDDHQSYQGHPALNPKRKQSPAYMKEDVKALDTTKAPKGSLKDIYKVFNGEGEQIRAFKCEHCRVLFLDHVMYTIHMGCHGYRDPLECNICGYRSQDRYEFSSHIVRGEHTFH
# T3 sequence (Q96SW2 whole entry): as the sequence (Q96SW2 whole entry) above
# T3 sequence (Q16531 whole entry partner): as the sequence (Q16531 whole entry partner) above
# T2 sequence (Q13422 whole entry): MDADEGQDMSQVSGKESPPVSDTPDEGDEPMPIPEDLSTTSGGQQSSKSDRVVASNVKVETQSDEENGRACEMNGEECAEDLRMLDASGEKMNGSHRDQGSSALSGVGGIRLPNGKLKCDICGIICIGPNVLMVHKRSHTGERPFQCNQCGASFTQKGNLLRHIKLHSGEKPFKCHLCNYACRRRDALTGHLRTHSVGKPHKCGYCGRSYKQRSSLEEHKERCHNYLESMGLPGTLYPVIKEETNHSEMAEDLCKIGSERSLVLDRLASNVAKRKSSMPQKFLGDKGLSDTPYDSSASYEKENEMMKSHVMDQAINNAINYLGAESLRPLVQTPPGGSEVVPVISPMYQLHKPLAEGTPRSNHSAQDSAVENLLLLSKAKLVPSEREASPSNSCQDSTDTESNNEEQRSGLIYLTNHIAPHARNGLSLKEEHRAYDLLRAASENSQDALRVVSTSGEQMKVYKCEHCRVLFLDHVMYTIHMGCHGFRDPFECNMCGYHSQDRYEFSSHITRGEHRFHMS
# T2 sequence (Q96SW2 whole entry): as the sequence (Q96SW2 whole entry) above
# T2 sequence (Q16531 whole entry partner): as the sequence (Q16531 whole entry partner) above
# T5 sequence (P30291 whole entry): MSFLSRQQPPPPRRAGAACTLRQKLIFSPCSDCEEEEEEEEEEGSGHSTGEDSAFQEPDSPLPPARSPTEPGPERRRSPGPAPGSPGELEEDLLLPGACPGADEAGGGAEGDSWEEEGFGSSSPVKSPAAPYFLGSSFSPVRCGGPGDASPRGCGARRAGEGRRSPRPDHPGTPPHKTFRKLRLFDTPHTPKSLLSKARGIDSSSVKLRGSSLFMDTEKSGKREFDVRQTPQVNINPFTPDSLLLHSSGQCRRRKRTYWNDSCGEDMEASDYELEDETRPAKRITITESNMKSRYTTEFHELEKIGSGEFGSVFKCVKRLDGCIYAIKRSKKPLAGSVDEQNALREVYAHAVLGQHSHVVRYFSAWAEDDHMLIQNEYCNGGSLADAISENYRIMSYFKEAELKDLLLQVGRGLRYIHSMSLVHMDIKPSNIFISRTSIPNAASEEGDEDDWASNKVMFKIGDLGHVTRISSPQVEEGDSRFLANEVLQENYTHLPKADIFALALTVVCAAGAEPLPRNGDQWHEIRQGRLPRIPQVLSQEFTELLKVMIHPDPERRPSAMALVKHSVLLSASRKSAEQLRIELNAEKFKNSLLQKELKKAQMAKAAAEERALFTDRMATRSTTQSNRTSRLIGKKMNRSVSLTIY
# T5 sequence (Q96SW2 whole entry): as the sequence (Q96SW2 whole entry) above
# T5 sequence (Q16531 whole entry partner): as the sequence (Q16531 whole entry partner) above
# T6 sequence (Q96SW2 whole entry): as the sequence (Q96SW2 whole entry) above
# T4 sequence (Q9UKT9 whole entry): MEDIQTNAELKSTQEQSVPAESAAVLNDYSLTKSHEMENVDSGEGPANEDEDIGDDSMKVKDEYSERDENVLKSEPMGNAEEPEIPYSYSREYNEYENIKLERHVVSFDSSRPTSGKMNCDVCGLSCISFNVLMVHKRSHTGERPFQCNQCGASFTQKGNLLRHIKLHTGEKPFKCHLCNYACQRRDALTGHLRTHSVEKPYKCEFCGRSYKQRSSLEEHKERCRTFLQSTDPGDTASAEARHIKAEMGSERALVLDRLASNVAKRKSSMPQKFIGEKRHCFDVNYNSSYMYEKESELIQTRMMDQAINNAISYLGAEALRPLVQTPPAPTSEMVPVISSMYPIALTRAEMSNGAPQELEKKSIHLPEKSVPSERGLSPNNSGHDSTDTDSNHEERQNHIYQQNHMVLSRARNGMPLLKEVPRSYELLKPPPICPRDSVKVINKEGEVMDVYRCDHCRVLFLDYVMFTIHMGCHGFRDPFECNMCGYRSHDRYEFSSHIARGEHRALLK
# T4 sequence (Q96SW2 whole entry): as the sequence (Q96SW2 whole entry) above
# T4 sequence (Q16531 whole entry partner): as the sequence (Q16531 whole entry partner) above
inhibition at 0.5 µM [1] [%],inhibition at 2 µM [1] [%],Structure (SMILES),CK1α substrate protein remaining % (CK1α; [5]),IKZF 1 substrate protein remaining % (IKZF1; [5]),IKZF2 substrate protein remaining % (IKZF2; [5]),IKZF3 substrate protein remaining % (IKZF3; [5]),Wee1 substrate protein remaining % (WEE1; [5]),GSPT1 substrate protein remaining % (GSPT1; [5]),inhibition at 0.01 µM [2] [%],inhibition at 0.5 µM [2] [%],inhibition at 0.01 µM [3] [%],inhibition at 0.5 µM [3] [%],inhibition at 0.01 µM [4] [%],inhibition at 0.5 µM [4] [%],CK1α substrate protein remaining % (CK1α; [6]),IKZF 1 substrate protein remaining % (IKZF1; [6]),IKZF2 substrate protein remaining % (IKZF2; [6]),IKZF3 substrate protein remaining % (IKZF3; [6]),Wee1 substrate protein remaining % (WEE1; [6]),GSPT1 substrate protein remaining % (GSPT1; [6])
20 to 30,60 to 80,"O=C1CCC(N2Cc3cc(CN4CCN(C(c5ccc(F)cc5)c5ccc(F)cc5)CC4)ccc3C2=S)C(=O)N1 (centres unmarked) [GT-07736, 3-(5-((4-(bis(4-fluorophenyl)methyl)piperazin-1-yl)methyl)-1-thioxoisoindolin-2-yl)piperidine-2,6-dione]",B (80%< substrate protein remaining %≤ 100%),A (0% ≤ substrate protein remaining % ≤ 80%),B (80%< substrate protein remaining %≤ 100%),A (0% ≤ substrate protein remaining % ≤ 80%),A (0% ≤ substrate protein remaining % ≤ 80%),A (0% ≤ substrate protein remaining % ≤ 80%),10 to 20,80 to 100,10 to 20,40 to 50,10 to 18,40 to 60,–,–,–,–,–,–
60 to 80,80 to 100,"Cc1cc(N2CCN(Cc3ccc4c(c3)CN(C3CCC(=O)NC3=O)C4=S)CC2)cs1 (centres unmarked) [GT-08170, 3-(5-((4-(5-methylthiophen-3-yl)piperazin-1-yl)methyl)-1-thioxoisoindolin-2-yl)piperidine-2,6-dione]",–,–,–,–,–,–,–,–,5 to 10,60 to 70,25 to 30,60 to 80,A (0% ≤ substrate protein remaining % ≤ 80%),B (80%< substrate protein remaining %≤ 100%),A (0% ≤ substrate protein remaining % ≤ 80%),A (0% ≤ substrate protein remaining % ≤ 80%),B (80%< substrate protein remaining %≤ 100%),A (0% ≤ substrate protein remaining % ≤ 80%)
40 to 53,80 to 100,"COc1ccccc1N1CCN(Cc2ccc3c(c2)CN(C2CCC(=O)NC2=O)C3=S)CC1 (centres unmarked) [GT-08236, 3-(5-((4-(2-methoxyphenyl)piperazin-1-yl)methyl)-1-thioxoisoindolin-2-yl)piperidine-2,6-dione]",B (80%< substrate protein remaining %≤ 100%),B (80%< substrate protein remaining %≤ 100%),B (80%< substrate protein remaining %≤ 100%),B (80%< substrate protein remaining %≤ 100%),B (80%< substrate protein remaining %≤ 100%),A (0% ≤ substrate protein remaining % ≤ 80%),–,–,10 to 20,40 to 50,10 to 18,60 to 80,–,–,–,–,–,–
30 to 40,60 to 80,"O=C1CCC(N2Cc3cc(CN4CCN(c5ccc(Cl)c(Cl)c5)CC4)ccc3C2=S)C(=O)N1 (centres unmarked) [GT-08612, 3-(5-((4-(3,4-dichlorophenyl)piperazin-1-yl)methyl)-1-thioxoisoindolin-2-yl)piperidine-2,6-dione]",B (80%< substrate protein remaining %≤ 100%),B (80%< substrate protein remaining %≤ 100%),B (80%< substrate protein remaining %≤ 100%),B (80%< substrate protein remaining %≤ 100%),B (80%< substrate protein remaining %≤ 100%),A (0% ≤ substrate protein remaining % ≤ 80%),–,–,10 to 20,50 to 60,–,–,–,–,–,–,–,–
30 to 40,60 to 80,"Cc1ccc(Cl)cc1N1CCN(Cc2ccc3c(c2)CN(C2CCC(=O)NC2=O)C3=S)CC1 (centres unmarked) [GT-08615, 3-(5-((4-(5-chloro-2-methylphenyl)piperazin-1-yl)methyl)-1-thioxoisoindolin-2-yl)piperidine-2,6-dione]",B (80%< substrate protein remaining %≤ 100%),B (80%< substrate protein remaining %≤ 100%),B (80%< substrate protein remaining %≤ 100%),B (80%< substrate protein remaining %≤ 100%),B (80%< substrate protein remaining %≤ 100%),A (0% ≤ substrate protein remaining % ≤ 80%),10 to 20,40 to 50,5 to 10,50 to 60,–,–,–,–,–,–,–,–
53 to 60,80 to 100,"O=C1CCC(N2Cc3c(CN4CCN(Cc5ccc(-c6ccc(Cl)cc6)cc5)CC4)cccc3C2=S)C(=O)N1 (centres unmarked) [GT-08960, 3-(4-((4-((4'-chloro-[1,1'-biphenyl]-4-yl)methyl)piperazin-1-yl)methyl)-1-thioxoisoindolin-2-yl)piperidine-2,6-dione]",–,–,–,–,–,–,–,–,20 to 30,40 to 50,–,–,–,–,–,–,–,–
80 to 100,80 to 100,"O=C1CCC(N2Cc3cc(CN4CCN(c5ccnc(Cl)c5Br)CC4)ccc3C2=S)C(=O)N1 (centres unmarked) [GT-09240, 3-(5-((4-(3-bromo-2-chloropyridin-4-yl)piperazin-1-yl)methyl)-1-thioxoisoindolin-2-yl)piperidine-2,6-dione]",–,–,–,–,–,–,–,–,50 to 60,30 to 40,–,–,B (80%< substrate protein remaining %≤ 100%),A (0% ≤ substrate protein remaining % ≤ 80%),B (80%< substrate protein remaining %≤ 100%),B (80%< substrate protein remaining %≤ 100%),B (80%< substrate protein remaining %≤ 100%),A (0% ≤ substrate protein remaining % ≤ 80%)
80 to 100,80 to 100,"O=C1CCC(N2Cc3cc(CN4CCN(c5c(Cl)cncc5Br)CC4)ccc3C2=S)C(=O)N1 (centres unmarked) [GT-09264, 3-(5-((4-(3-bromo-5-chloropyridin-4-yl)piperazin-1-yl)methyl)-1-thioxoisoindolin-2-yl)piperidine-2,6-dione]",–,–,–,–,–,–,30 to 40,40 to 50,–,–,30 to 40,40 to 60,B (80%< substrate protein remaining %≤ 100%),B (80%< substrate protein remaining %≤ 100%),B (80%< substrate protein remaining %≤ 100%),B (80%< substrate protein remaining %≤ 100%),B (80%< substrate protein remaining %≤ 100%),A (0% ≤ substrate protein remaining % ≤ 80%)

# — patent EP4745135A1 (Gluetacs Therapeutics (Shanghai) Co., Ltd., priority 2023, dated 2025)
